# Results: patent publication US6699875B2, “Cascade esters of camptothecins and methods of treating cancer using these compounds” (priority 2002, dated 2004)
# Key:
# [1] = Closed lactone form of CPT in plasma after oral administration in humans; assay type: in vivo
# [2] = Closed lactone form of CPT in plasma after intrastomach administration in mice; assay type: in vivo
# [3] = Metabolism and pharmacokinetics of camptothecin in human plasma; assay type: in vitro ADME
# [4] = Plasma level of closed lactone form of 9NC after oral administration to Phase I patients; assay type: in vivo, humans; details: after oral administration to Phase I clinical trial patients, on average
# human tumor xenografts = details: in mice; cited from earlier work
# human malignancies = test: Clinical responses in Phase I clinical trial patients; assay type: in vivo; details: in humans, oral
# Source text: Clearly, there is a pressing need for a modification which will slow and delay the lactone ring opening upon its entrance into the blood circulation.
# [5] = Plasma level of closed lactone form of 9NC after i.s. administration; assay type: in vivo, mice
# [6] = sodium carboxylate salt vs closed lactone camptothecin; cited from earlier work
compound,measurement,setting,value
20(S)-camptothecin [CPT],"closed lactone form, share of the area under the curve",[1],about 0.4%
same,"closed lactone form, share of the area under the curve",[2],approximately 54%
same,half-life time of the drug with lactone intact,[3],30 min
same,metabolite detected,[3],the only metabolite detected is the ring-opened sodium carboxylate salt
"CC[C@@]1(O)C(=O)OCc2c1cc1n(c2=O)Cc2cc3c([N+](=O)[O-])cccc3nc2-1 [9NC, 9-nitrocamptothecin]",share of drug present in the plasma in the closed lactone form,[4],~3%
same,complete tumor regressions,human tumor xenografts,32/32
same,potency relative to CPT against human tumor xenografts,human tumor xenografts,2-3 times
same,complete tumor regressions,human malignancies,2/32
same,share of drug present in the plasma in the closed lactone form,[5],57%
CC[C@@](O)(C(=O)[O-])c1cc2n(c(=O)c1CO)Cc1cc3ccccc3nc1-2.[Na+] [sodium carboxylate salt],potency relative to native camptothecin with the closed lactone ring intact,[6],10%
